We go through 10 compounds from patent US20260102460A1, “NOVEL COMBINATIONS OF ANTIBIOTICS AND NON-ANTIBIOTIC DRUGS EFFECTIVE IN VIVO AGAINST GRAM-POSITIVE BACTERIA, IN PARTICULAR METHICILLIN-RESISTANT S. AUREUS (MRSA)” (EUROPEAN MOLECULAR BIOLOGY LABORATORY, priority 2022, published 2026).

“Also recorded” adds a separate entry of the source.

The test system of one assay is S. aureus DSM 20231. The assay is described as follows: Adjuvant (extended non-antibiotic) combination screen. Format: cell-based, Staphylococcus aureus. The note with it: S. aureus DSM 20231; original and extended non-antibiotic screen (FIG. 4d); 4×4 dose matrix. As to the method:
(§1) MICs were tested in all strains for the main screen. Drugs were two-fold serially diluted in 11 concentrations, and 32 no-drug control wells were included in each plate. Experiments were conducted in 384-well plates (ref. 781271 by Greiner BioOne), with a total volume of 30 μl for S. aureus and B. subtilis and 55 μl for S. pneumoniae. Volumes were optimized for each strain to achieve good dynamic range for growth and minimize risk of cross-contamination between wells. Plates were inoculated with a starting optical density at 595 nm (OD595 nm) of 0.01 from an overnight culture. All liquid handling was performed using a Biomek FX liquid handler (Beckman Coulter). Plates were sealed with breathable membranes and incubated at 37° C. OD595 nm was measured every 30 minutes for 14 hours. The MIC was considered as the first concentration at which growth was inhibited. Experiments were conducted in biological duplicates. For the adjuvant screen, antibiotics were tested in S. aureus DSM 20231 at the same concentrations as for the main screen. Non-antibiotics concentrations were selected to fall within therapeutic ranges.
(§2) 62 drugs, hereafter designated as recipients, were arrayed in 384-well plates (ref. 781271 by Greiner BioOne) in three two-fold serial dilutions and two technical replicates. Concentrations were selected according to MICs, with the highest concentration corresponding to the MIC, and the intermediate and lowest concentration corresponding to ½ and ¼ MIC, respectively. Plates were kept frozen and defrosted upon each experimental run, when the same 62 drugs and in the same three concentrations were added as donor drugs (one drug at one concentration for each recipient plate). A few drugs were screened only as donors: the combinations co-amoxiclav and cotrimoxazole in B. subtilis and S. aureus DSM 20231; co-amoxiclav, clavulanic acid, pseudomonic acid and cefuroxime in S. aureus Newman. All donor drugs were tested in two biological replicates. Control wells were included in each plate (six no-drug wells, three plain medium wells and three wells containing only the donor drug). After the addition of donor drugs, plates were inoculated with cells. Handling, inoculation, growth conditions, plate incubation and OD595 nm measurements were performed as for the MIC determination.
For the adjuvant screen, 44 non-antibiotic drugs were tested against the same recipient drugs of the main screen for S. aureus DSM 20231.
The inventors selected 44 drugs to include pharmaceuticals that can be co-administered with antibiotics in S. aureus infections or non-antibiotics with previously reported antibacterial activity against S. aureus. […] Interactions were scored and benchmarked as for the main screen (Methods).

The subject of a further assay is S. aureus (two strains). The assay is described as follows: High-throughput screen of drug combinations (4×4 broth microdilution checkerboard, Bliss scores). The note with it: for drug-drug interaction (synergy / antagonism, Bliss model): S. aureus Newman and DSM 20231, fitness from OD595nm at 8 h, synergy = first quartile of Bliss scores <−0.1, antagonism = third quartile >0.1, FDR <0.05. Format: cell-based, Staphylococcus aureus. As to the method:
as §1, §2
On the technique in general: Broth dilution looks for growth in wells or tubes with falling amounts of substance.

In assay [1] the test system is multi-drug resistant E. coli isolates. The note with it: vanillin paired with spectinomycin; Gram-negative pathogenic and multi-drug resistant E. coli isolates; cited from earlier work.
Assay [2] relates to S. aureus Newman dltABCD and tagG IPTG-inducible knockdown mutants. Put plainly: Gentamicin and nisin MIC in dltABCD and tagG knockdown mutants. Format: cell-based, Staphylococcus aureus. The note with it: dltABCD operon and tagG knockdown, 500 μM IPTG, versus control strain MM76. The source says: A two-plasmid CRISPR interference system was used to knock down gene expression of selected genes in S. aureus Newman. In these strains, dcas is expressed from an IPTG-inducible promoter on plasmid pLOW, while sgRNAs are expressed from a constitute promoter on a plasmid derived from pCG248. The sgRNA-target sequences were […] (SEQ ID NO. 1) for dltABCD and […] (SEQ ID NO. 2) for tagG, and […] (SEQ ID NO. 3) for the non-target control MM76.
For gentamicin and nisin MIC measurements, dltABCD and tagG IPTG-inducible knockdown mutants (Methods) were grown in two-fold dilutions of nisin and gentamicin, in presence of erythromycin (5 μg/ml) and chloramphenicol (10 μg/ml) for plasmid maintenance. IPTG (500 μM) was used to achieve maximal knockdown of the gene targeted. The parent S. aureus Newman and the control strain MM76 (Methods) were included in all experiments, and experiments were conducted in four biological replicates, in 384-well plates (ref. 781271 by Greiner BioOne). For each plate, the inventors identified the time point where the control strain MM76 (in presence of erythromycin, chloramphenicol and IPTG at the above-mentioned concentrations) reached plateau, defined as the first time point before no increase was detected in log 10 (OD595 nm) values of two consecutive time points. […]

In a further assay the test system is MDR S. aureus isolates. The note with it: Mueller-Hinton broth (MHB), 22 h; cited from earlier work.

For the compound `CC(=O)Oc1ccccc1C(=O)O` [acetylsalicylic acid], the “interactions between non-antibiotic drug and antibiotics (synergy / antagonism, Bliss model)” value in the assay with S. aureus DSM 20231 is “synergy with cefuroxime; also recorded: antagonisms with ciprofloxacin, oxacillin and azithromycin”.
On to `O=C(O)[C@H]1/C(=C/CO)O[C@@H]2CC(=O)N21` [clavulanic acid], for which the “drug-drug interaction (synergy / antagonism, Bliss model)” value in the assay on S. aureus (two strains) is “a number of synergies with other drugs”.
As for `CCN(CC)CCOc1ccc(C(=C(Cl)c2ccccc2)c2ccccc2)cc1` [clomifene], in the assay on S. aureus DSM 20231, the “interactions between non-antibiotic drug and antibiotics (synergy / antagonism, Bliss model)” value was “synergies with cell-wall acting drugs; also recorded: antagonism with streptomycin”.
As to `C[C@@H]1O[C@@H]1P(=O)(O)O` [fosfomycin], the “drug-drug interaction (synergy / antagonism, Bliss model)” value with S. aureus (two strains) is “strongly synergized with a diverse range of protein-synthesis inhibitors (lincosamides, oxazolidinones, streptomycin); also recorded: synergized with almost all classes of translation inhibitors, including macrolides, tetracyclines and spectinomycin”.
`CN(C)C(=O)C(CCN1CCC(O)(c2ccc(Cl)cc2)CC1)(c1ccccc1)c1ccccc1` [loperamide]: in the assay on S. aureus (two strains), the “drug-drug interaction (synergy / antagonism, Bliss model)” value is “broad antagonism with macrolides”. In addition, the “rank by number of interactions with antibiotics” value in the assay on S. aureus (two strains) (the inventors' screen) was “highest number of interactions with antibiotics”.
As to `COc1cc(Cc2cnc(N)nc2N)cc(OC)c1OC` [trimethoprim], the “drug-drug interaction (synergy / antagonism, Bliss model)” value in the assay with S. aureus (two strains) is reported as “a number of synergies with other drugs”.
As to `COc1cc(C=O)ccc1O` [vanillin], the “inhibitory effect on growth” value in assay [1] was “surprisingly strong inhibitory effect on the growth”.
Take gentamicin: the “change of MIC in CRISPRi knockdown mutants” value in assay [2] is on record as “decrease”.
On the same count and under the same terms, the same measure for nisin: “decrease”.
As to teicoplanin, the “killing by single drug” value in the assay on MDR S. aureus isolates was “complete killing”.
